test system: PBMC (T cell proliferation); experiment: T cell proliferation assay, PHA-stimulated human PBMC (BrdU ELISA); type: cell-based; conditions: Homo sapiens, 48 h, read-out: D: IC50 (Tcell proliferation)
In short: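 Healthy-donor human PBMC, Ficoll-isolated, seeded 1×10^5 cells/well in RPMI1640 with 10% dialyzed FCS, stimulated with 2 μg/ml PHA alongside test compound. Proliferation read after 48 hours by BrdU ELISA.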

SMILES	IC50 [nM]
CCOC(=O)c1c(-c2c(F)cccc2Cl)noc1-c1cnn(-c2ccccc2N)c1C(F)(F)F [Example B-98, ethyl 5-(1-(2-aminophenyl)-5-(trifluoromethyl)-1H-pyrazol-4-yl)-3-(2-chloro-6-fluorophenyl)isoxazole-4-carboxylate]	10 to 100

same assay, conditions: Homo sapiens, 48 h, read-out: IC50 (Tcell proliferation)

SMILES	IC50 [nM]
Fc1cccc(Cl)c1-c1noc(-c2cnn(-c3ccccc3Cl)c2C(F)(F)F)c1-c1nccs1 [IB-29, 3-(2-chloro-6-fluorophenyl)-5-(1-(2-chlorophenyl)-5-(trifluoromethyl)-1H-pyrazol-4-yl)-4-(thiazol-2-yl)isoxazole]	1000 to 10000

same assay, conditions: PHA-stimulated human PBMC, 48 hours, BrdU; column D; activity classes 1-4; read-out: IC50 (Tcell proliferation)

SMILES	IC50 [nM]
Fc1cccc(-n2ncc(-c3onc(-c4c(F)cccc4Cl)c3-c3ccccc3)c2C(F)(F)F)c1 [Example I-14, 3-(2-chloro-6-fluorophenyl)-5-(1-(3-fluorophenyl)-5-(trifluoromethyl)-1H-pyrazol-4-yl)-4-phenylisoxazole]	100 to 1000
Fc1cccc(Cl)c1-c1noc(-c2cnn(-c3cccc(Cl)c3)c2C(F)(F)F)c1-c1nncs1 [IB-8, 3-(2-chloro-6-fluorophenyl)-5-(1-(3-chlorophenyl)-5-(trifluoromethyl)-1H-pyrazol-4-yl)-4-(1,3,4-thiadiazol-2-yl)isoxazole]	< 10
Fc1cccc(-n2ncc(-c3onc(-c4c(F)cccc4Cl)c3-c3nnn[nH]3)c2C(F)(F)F)c1 [Example I-2, 3-(2-chloro-6-fluorophenyl)-5-(1-(3-fluorophenyl)-5-(trifluoromethyl)-1H-pyrazol-4-yl)-4-(1H-tetrazol-5-yl)isoxazole]	1000 to 10000
Fc1cccc(Cl)c1-c1noc(-c2cnn(-c3cccc(Cl)c3)c2C(F)(F)F)c1-c1nnn[nH]1 [Example I-3, 3-(2-chloro-6-fluorophenyl)-5-(1-(3-chlorophenyl)-5-(trifluoromethyl)-1H-pyrazol-4-yl)-4-(1H-tetrazol-5-yl)isoxazole]	1000 to 10000
Cc1nnc(-c2c(-c3c(F)cccc3Cl)noc2-c2cnn(-c3cccnc3)c2C(F)(F)F)o1 [IB-10, 2-(3-(2-chloro-6-fluorophenyl)-5-(1-(pyridin-3-yl)-5-(trifluoromethyl)-1H-pyrazol-4-yl)isoxazol-4-yl)-5-methyl-1,3,4-oxadiazole]	100 to 1000
COc1cccc(Cl)c1-c1noc(-c2cnn(-c3ccccc3Cl)c2C(F)(F)F)c1-c1cnco1 [IB-34, 3-(2-chloro-6-methoxyphenyl)-5-(1-(2-chlorophenyl)-5-(trifluoromethyl)-1H-pyrazol-4-yl)-4-(oxazol-5-yl)isoxazole]	100 to 1000
Fc1cccc(Cl)c1-c1noc(-c2cnn(-c3cccc(Cl)c3)c2C(F)(F)F)c1-c1nnco1 [IB-5, 2-(3-(2-chloro-6-fluorophenyl)-5-(1-(3-chlorophenyl)-5-(trifluoromethyl)-1H-pyrazol-4-yl)isoxazol-4-yl)-1,3,4-oxadiazole]	< 10

same assay, conditions: human PBMC, 2 μg/ml PHA, 48 hours, BrdU; read-out: D: IC50 (Tcell proliferation)

SMILES	IC50 [nM]
CNC(=O)c1c(-c2c(F)cccc2Cl)noc1-c1cnn(-c2cccc(F)c2)c1C(F)(F)F [Example 62, 3-(2-chloro-6-fluorophenyl)-5-(1-(3-fluorophenyl)-5-(trifluoromethyl)-1H-pyrazol-4-yl)-N-methylisoxazole-4-carboxamide]	10 to 100
CCOC(=O)c1c(-c2c(F)cccc2Cl)noc1-c1cnn(CCN2CCOCC2)c1C(F)(F)F [Example B-97, ethyl 3-(2-chloro-6-fluorophenyl)-5-(1-(2-morpholinoethyl)-5-(trifluoromethyl)-1H-pyrazol-4-yl)isoxazole-4-carboxylate]	1000 to 10000
COC(=O)c1c(-c2c(F)cccc2Cl)noc1-c1cnn(C2CCS(=O)(=O)C2)c1C(F)(F)F (stereo not shown) [Example 103, methyl 3-(2-chloro-6-fluorophenyl)-5-(1-(3-hydrazinyltetrahydrothiophene 1,1-dioxide)-5-(trifluoromethyl)-1H-pyrazol-4-yl)isoxazole-4-carboxylate]	100 to 1000
COC(=O)c1c(-c2c(F)cccc2Cl)noc1-c1cnn(C(C)C)c1C(F)(F)F [Example 66, methyl 3-(2-chloro-6-fluorophenyl)-5-(1-isopropyl-5-(trifluoromethyl)-1H-pyrazol-4-yl)isoxazole-4-carboxylate]	1000 to 10000
CCOc1cc(-n2ncc(-c3onc(-c4c(F)cccc4Cl)c3C(=O)OC)c2C(F)(F)F)ncn1 [Example 116, methyl 3-(2-chloro-6-fluorophenyl)-5-(1-(6-ethoxypyrimidin-4-yl)-5-(trifluoromethyl)-1H-pyrazol-4-yl)isoxazole-4-carboxylate]	1000 to 10000
COC(=O)c1c(-c2c(F)cccc2Cl)noc1-c1cnn(-c2cc(C)nc(C)n2)c1C(F)(F)F [Example 119, methyl 3-(2-chloro-6-fluorophenyl)-5-(1-(2,6-dimethylpyrimidin-4-yl)-5-(trifluoromethyl)-1H-pyrazol-4-yl)isoxazole-4-carboxylate]	100 to 1000
CCOC(=O)c1c(-c2c(F)cccc2Cl)noc1-c1cnn(Cc2ccccc2F)c1C(F)(F)F [Example B-80, ethyl 3-(2-chloro-6-fluorophenyl)-5-(1-(2-fluorobenzyl)-5-(trifluoromethyl)-1H-pyrazol-4-yl)isoxazole-4-carboxylate]	1000 to 10000
COC(=O)c1c(-c2c(F)cccc2Cl)noc1-c1cnn(-c2cccc(F)c2)c1C(F)(F)F [Example 5, methyl 3-(2-chloro-6-fluorophenyl)-5-(1-(3-fluorophenyl)-5-(trifluoromethyl)-1H-pyrazol-4-yl)isoxazole-4-carboxylate]	< 10
CCOC(=O)c1c(-c2c(Cl)cncc2Cl)noc1-c1cnn(-c2cccc(NC(C)=O)c2)c1C(F)(F)F [Example B-11, ethyl 5-(1-(3-acetamidophenyl)-5-(trifluoromethyl)-1H-pyrazol-4-yl)-3-(3,5-dichloropyridin-4-yl)isoxazole-4-carboxylate]	100 to 1000
COC(=O)c1c(-c2c(F)cccc2Cl)noc1-c1cnn(-c2cccc(Cl)c2)c1C(F)(F)F [Example 11, methyl 3-(2-chloro-6-fluorophenyl)-5-(1-(3-chlorophenyl)-5-(trifluoromethyl)-1H-pyrazol-4-yl)isoxazole-4-carboxylate]	< 10
CON(C)C(=O)c1c(-c2c(F)cccc2Cl)noc1-c1cnn(-c2cccnc2)c1C(F)(F)F [Example B-56, 3-(2-chloro-6-fluorophenyl)-N-methoxy-N-methyl-5-(1-(pyridin-3-yl)-5-(trifluoromethyl)-1H-pyrazol-4-yl)isoxazole-4-carboxamide]	1000 to 10000
CCOC(=O)c1c(-c2ccncc2F)noc1-c1cnn(-c2cccc(NC(C)=O)c2)c1C(F)(F)F [Example B-6, ethyl 5-(1-(3-acetamidophenyl)-5-(trifluoromethyl)-1H-pyrazol-4-yl)-3-(3-fluoropyridin-4-yl)isoxazole-4-carboxylate]	100 to 1000
COC(=O)c1c(-c2ccccc2F)noc1-c1cnn(-c2cccc(F)c2)c1C(F)(F)F [Example 92, methyl 3-(2-fluorophenyl)-5-(1-(3-fluorophenyl)-5-(trifluoromethyl)-1H-pyrazol-4-yl)isoxazole-4-carboxylate]	100 to 1000
CON(C)C(=O)c1c(-c2c(F)cccc2Cl)noc1-c1cnn(-c2cccc(Cl)c2)c1C(F)(F)F [Example 63, 3-(2-chloro-6-fluorophenyl)-5-(1-(3-chlorophenyl)-5-(trifluoromethyl)-1H-pyrazol-4-yl)-N-methoxy-N-methylisoxazole-4-carboxamide]	100 to 1000
NNC(=O)c1c(-c2c(F)cccc2Cl)noc1-c1cnn(-c2cccc(F)c2)c1C(F)(F)F [Example 133, 3-(2-chloro-6-fluorophenyl)-5-(1-(3-fluorophenyl)-5-(trifluoromethyl)-1H-pyrazol-4-yl)isoxazole-4-carbohydrazide]	1000 to 10000
CSC(=O)c1c(-c2c(F)cccc2Cl)noc1-c1cnn(-c2cccnc2)c1C(F)(F)F [Example B-68, S-methyl 3-(2-chloro-6-fluorophenyl)-5-(1-(pyridin-3-yl)-5-(trifluoromethyl)-1H-pyrazol-4-yl)isoxazole-4-carbothioate]	10 to 100
CON(C)C(=O)c1c(-c2c(F)cccc2Cl)noc1-c1cnn(-c2ccncc2)c1C(F)(F)F [Example B-59, 3-(2-chloro-6-fluorophenyl)-N-methoxy-N-methyl-5-(1-(pyridin-4-yl)-5-(trifluoromethyl)-1H-pyrazol-4-yl)isoxazole-4-carboxamide]	1000 to 10000
O=C(c1c(-c2c(F)cccc2Cl)noc1-c1cnn(-c2ccccc2F)c1C(F)(F)F)N1CCOCC1 [Example 16, (3-(2-chloro-6-fluorophenyl)-5-(1-(2-fluorophenyl)-5-(trifluoromethyl)-1H-pyrazol-4-yl)isoxazol-4-yl)(morpholino)methanone]	1000 to 10000
COC(=O)c1c(-c2c(F)cccc2Cl)noc1-c1cnn(-c2cccc(C#N)c2)c1C(F)(F)F [Example 12, methyl 3-(2-chloro-6-fluorophenyl)-5-(1-(3-cyanophenyl)-5-(trifluoromethyl)-1H-pyrazol-4-yl)isoxazole-4-carboxylate]	10 to 100
CCOC(=O)c1c(-c2onc(-c3c(F)cccc3Cl)c2C(=O)OC)cnn1-c1cccc(Cl)c1Cl [Example 9, methyl 3-(2-chloro-6-fluorophenyl)-5-(1-(2,3-dichlorophenyl)-5-(ethoxycarbonyl)-1H-pyrazol-4-yl)isoxazole-4-carboxylate]	1000 to 10000
NNC(=O)c1c(-c2cccc(F)c2)noc1-c1cnn(-c2cccc(F)c2)c1C(F)(F)F [Example 134, 3-(3-fluorophenyl)-5-(1-(3-fluorophenyl)-5-(trifluoromethyl)-1H-pyrazol-4-yl)isoxazole-4-carbohydrazide]	1000 to 10000
O=C(O)c1c(-c2c(F)cccc2Cl)noc1-c1cnn(Cc2ccccc2F)c1C(F)(F)F [Example B-86, 3-(2-chloro-6-fluorophenyl)-5-(1-(2-fluorobenzyl)-5-(trifluoromethyl)-1H-pyrazol-4-yl)isoxazole-4-carboxylic acid]	1000 to 10000
